In patent publication US7943610B2, “Pyrazolopyridine-1,4-diamines and analogs thereof” (3M Innovative Properties Company, priority 2005, dated 2011):

Row | Compound | melting point
1 | CCCn1nc2c(N)nc3ccccc3c2c1N [Example 1, 2-Propyl-2H-pyrazolo[3,4-c]quinoline-1,4-diamine] | 253 °C (dec.)
2 | CCCn1nc2c(N)nc3ccccc3c2c1NCc1ccccc1 [Example 37, N^1-Benzyl-2-propyl-2H-pyrazolo[3,4-c]quinoline-1,4-diamine] | 160 to 161 °C
3 | CCCn1nc2c(N)nc3ccccc3c2c1NC(C)C [Example 36, N^1-Isopropyl-2-propyl-2H-pyrazolo[3,4-c]quinoline-1,4-diamine] | 199 to 200 °C
4 | CCCn1nc2c(N)nc3ccccc3c2c1NCCC1CCN(C(=O)NC(C)C)CC1 [Example 5, 4-{2-[(4-Amino-2-propyl-2H-pyrazolo[3,4-c]quinolin-1-yl)amino]ethyl}-N-isopropylpiperidine-1-carboxamide] | 168 to 170 °C
5 | CCCn1nc2c(N)nc3ccccc3c2c1NCC [Example 2, N^1-Ethyl-2-propyl-2H-pyrazolo[3,4-c]quinoline-1,4-diamine] | 193 to 194 °C
6 | CCCn1nc2c(N)nc3ccccc3c2c1NC [Example 35, N^1-Methyl-2-propyl-2H-pyrazolo[3,4-c]quinoline-1,4-diamine] | 200 to 201 °C
7 | CCCn1nc2c(N)nc3ccccc3c2c1NCCC1CCN(C(C)=O)CC1 [Example 6, N^1-[2-(1-Acetylpiperidin-4-yl)ethyl]-2-propyl-2H-pyrazolo[3,4-c]quinoline-1,4-diamine] | 203 to 206 °C
